Experimental data reported in US4883791A, “25S,26-dihydroxycholecalciferol in the treatment of hypercalcitriolemic disease states” (Board of Regents, The University of Texas System, priority 1987, dated 1989).
Entries after “also recorded” stand apart in the source; their conditions may differ.

Legend:
[1] = Effect of 25S,26(OH)2 D3 administration on 1,25(OH)2 D3 mediated increases in serum 1,25(OH)2 D3; assay type: in vivo, Sprague-Dawley rats (adult female); settings: for serum 1,25(OH)2 D: mean ± SE
Description: (§1) Adult female Sprague-Dawley rats weighing between 190-200 g were used in all studies and were purchased from Harlan (Houston, TX). The animals were housed in the animal resource facility and were fed a standard vitamin D-replete rat chow diet (2.0% calcium and 0.9% phorphorus, Tekland, Winfield, OH) ad lib. After four to five days of equlibration the animals were divided into appropriate study groups and injected subcutaneously each day with various doses of 25(S),26(OH)2 D3 or 1,25(OH)2 D3 metabolites. In some experiments, animals received both metabolites as two separate injections. Control animals received only vehicle (propylene glycol).
Two ml of serum was obtained for each rat for measurement of 25(S),26(OH)2 D3, and 1,25-(OH)2 D3. After spiking the samples with approximately 1200 cpm of radiolabeled 250HD3, 24,25-(OH)2 D3 and 1,25(OH)2 D3 and allowing the samples to equilibrate for 30 minutes, isolation of the vitamin D metabolites was accomplished as described in Bishop JE, Norman AW, Coburn JW, Roberts PA, Henry, HL 1980 "Determination of the concentration of 25-hydroxyvitamin D, 24,25-dihydroxyvitamin D and 1,25-dihydroxyvitamin D in a single two-milliliter plasma sample." Min Elect Metab 3: 181. Further separation and partial purification of the metabolites was effected with lipohilic Sephadex (Sigma, St. Louis, MO) liquid gel chromatography using a 9:1:1:0.015 (hexane:chloroform:methanol:H2 O) solvent system and a 10×1 cm gel bed as previously described by Eisman JA, Hamstra AJ, Kream BD, DeLuca HF, 1975, "A sensitive, precise and convenient method for determination of 1,25-dihydroxyvitamin D in human plasma." Arch Biochem Biophys 176: 235. This chromatographic system effectively separates 250HD (5-11 ml) from the dihydroxy metabolites (14-30 ml). The trihydroxy metabolite 1,25,26(OH)3 D is eluted from the column by changing the solvent system to 8:2:2:0.015 (hexane:chloroform:methanol:H2 O) after elution of the dihydroxy metabolites and collecting the next 12 ml.
Final resolution and purification of the vitamin D metabolites was performed with high pressure liquid chromatography as previously described in Zerwekh et al., 1983, "Extra-renal production of 24,25-dihydroxyvitaminD in chronic renal failure during 25-hydroxyvitamin D3 therapy." Kid Int. 23: 401 and Pak et al., 1982, "Effects of short-term glucocorticoid administration in primary hyperparathyroidism: comparison to sarcoidiosis J. Clin. Endrocrinol Metab. 54: 824. 250HD was purified on a 5% 2-propanol in hexane solvent system. The three dihydroxyvitamin D metabolites were isolated and purified using an 11% 2-propanol in hexane solvent system. The assay of 25S,26-(OH)2 D was performed using the rat serum vitamin D binding protein assay system described in Haddad JG, Chyu KF 1971 "competitive protein binding assay for 25-hydroxycholecalciferol." J Clin Endocrinol Metab 33: 992. The assay of 1,25(OH)2 D was accomplished using the chick intestinal receptor protein.
(§2) Values in parenthesis represent p value of significant difference between
(§3) dosed and control animals as determined by nonparametric analysis and
(§4) Welch's approximation to the t test. All values expressed as mean ± SE
(§5) for seven rats per group.
(§6) ^a 1,25(OH)2 D3 administered subcutaneously at a dose of
(§7) 0.15 μg/d/rat for three days
(§8) ^b 25S,26(OH)2 D3 administered subcutaneously for seven day
(§9) at a dose of 20 μg/d/rat; on days 5, 6, and 7 both 25S,26(OH)2
(§10) D3 and 1,25(OH)2 D3 (0.15 μg/d/rat) were given as two

[2] = Serum 25S,26(OH)2 D level after administration (rat serum vitamin D binding protein assay); assay type: in vivo, Sprague-Dawley rats (adult female); settings: mean ± SE
Description: as §1
Two ml of serum was obtained for each rat for measurement of 25(S),26(OH)2 D3, and 1,25-(OH)2 D3. […] This chromatographic system effectively separates 250HD (5-11 ml) from the dihydroxy metabolites (14-30 ml). The trihydroxy metabolite 1,25,26(OH)3 D is eluted from the column by changing the solvent system to 8:2:2:0.015 (hexane:chloroform:methanol:H2 O) after elution of the dihydroxy metabolites and collecting the next 12 ml.
250HD was purified on a 5% 2-propanol in hexane solvent system. The three dihydroxyvitamin D metabolites were isolated and purified using an 11% 2-propanol in hexane solvent system. […] The assay of 1,25(OH)2 D was accomplished using the chick intestinal receptor protein.
as §2, §3, §4, §5, §6, §7, §8, §9, §10

Row | serum 25S,26(OH)2 D ([2]; Exp. 1, 25S,26(OH)2 D3 20 μg/d/rat s.c. seven days + 1,25(OH)2 D3 0.15 μg/d/rat days 5, 6, 7, control 1.9 ± 0.2, p < 0.001) [ng/mL] | serum 25S,26(OH)2 D ([2]; Exp. 2, 25S,26(OH)2 D3 + 1,25(OH)2 D3 s.c., seven rats, control 2.0 ± 0.2, p < 0.01) [ng/mL] | serum 25S,26(OH)2 D ([2]; Exp. 3, 25S,26(OH)2 D3 + 1,25(OH)2 D3 s.c., seven rats, control 1.20 ± 0.1, p < 0.006) [ng/mL] | Structure (SMILES) | serum 1,25(OH)2 D ([1]; Exp. 1, 1,25(OH)2 D3 alone, 0.15 μg/d/rat s.c., three days, seven rats, control 25 ± 3, p < 0.001) [pg/mL] | serum 1,25(OH)2 D ([1]; Exp. 2, 1,25(OH)2 D3 alone s.c., seven rats, control 23 ± 3, p = 0.006) [pg/mL] | serum 1,25(OH)2 D ([1]; Exp. 3, 1,25(OH)2 D3 alone s.c., seven rats, control 27 ± 4, p < 0.001) [pg/mL] | serum 25S,26(OH)2 D ([2]; Exp. 1, 1,25(OH)2 D3 alone, 0.15 μg/d/rat s.c., three days, seven rats, control 1.9 ± 0.2) [ng/mL] | serum 25S,26(OH)2 D ([2]; Exp. 2, 1,25(OH)2 D3 alone s.c., seven rats, control 2.0 ± 0.2) [ng/mL] | serum 25S,26(OH)2 D ([2]; Exp. 3, 1,25(OH)2 D3 alone s.c., seven rats, control 1.20 ± 0.1) [ng/mL] | serum 1,25(OH)2 D ([1]; Exp. 1, 25S,26(OH)2 D3 20 μg/d/rat s.c. seven days + 1,25(OH)2 D3 0.15 μg/d/rat days 5, 6, 7, control 25 ± 3) [pg/mL] | serum 1,25(OH)2 D ([1]; Exp. 2, 25S,26(OH)2 D3 + 1,25(OH)2 D3 s.c., seven rats, control 23 ± 3) [pg/mL] | serum 1,25(OH)2 D ([1]; Exp. 3, 25S,26(OH)2 D3 + 1,25(OH)2 D3 s.c., seven rats, control 27 ± 4) [pg/mL] | reduction of serum / endogenous 1,25-dihydroxycholecalciferol ([1]; result in words)
1 |  |  |  | C=C1/C(=C\C=C2/CCC[C@]3(C)[C@@H]([C@H](C)CCCC(C)(C)O)CC[C@@H]23)C[C@@H](O)C[C@@H]1O [1,25(OH)2 D3, 1α,25-dihydroxycholecalciferol, reference compound] | 206 ± 17 | 175 ± 52 | 180 ± 45 | 3.0 ± 0.8 | 3.20 ± 0.3 | 0.9 ± 0.3 |  |  |  | 
2 | 295 ± 7 | 168 ± 14 | 236 ± 28 | C=C1CC[C@H](O)C/C1=C/C=C1\CCC[C@]2(C)[C@@H]([C@H](C)CCC[C@](C)(O)CO)CC[C@@H]12 [25S,26(OH)2 D3, 25S,26-dihydroxycholecalciferol] |  |  |  |  |  |  | 59 ± 3 | 46 ± 4 | 38 ± 6 | lowers endogenous levels of 1α,25-dihydroxycholecalciferol; also recorded: active in reducing serum concentrations of 1,25-dihydroxycholecalciferol
